From patent publication US20230407243A1, “GENETIC PLATFORM TO INVESTIGATE THE FUNCTIONS OF BACTERIAL DRUG EFFLUX PUMPS” (priority 2022, published 2023)

Key:
Type in all cases: cell-based, Escherichia coli
EKO-35 araC::acrB = experiment: MIC susceptibility profiling, efflux platform
Outline: (§1)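 LB o/n 37 °C → PBS pH 7.4, OD600 ~1.0 → 1/2000 in MHB II; 2-fold cmpd series, duplicate, DMSO ctrl; 18 h 37 °C, 900 rpm; OD600 post minus pre.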

EKO-35 araC::acrD = experiment: MIC susceptibility profiling, efflux platform
Outline: as §1

EKO-35 araC::emrAB = experiment: MIC susceptibility profiling, efflux platform
Outline: as §1

EKO-35 araC::emrKY = experiment: MIC susceptibility profiling, efflux platform
Outline: as §1

EKO-35 araC::macAB = experiment: MIC susceptibility profiling, efflux platform
Outline: as §1

EKO-35 araC::mdtEF = experiment: MIC susceptibility profiling, efflux platform
Outline: as §1

[1] = system: EKO-35 araC::mexCD (MexCD from P. aeruginosa); experiment: MIC susceptibility profiling, efflux platform
Outline: as §1

[2] = system: EKO-35 porinated strain expressing acrB; experiment: Checkerboard synergy (FICI), porinated strain
Protocol: (§2) Synergy measurement using checkerboard analysis was performed in 96-well microtiter plates using the microdilution broth method, according to CLSI guidelines (Patel J. B., 2015). The cell inocula were prepared using the colony resuspension method. The minimum inhibitory concentrations (MICs) were defined as the lowest concentration that provided no growth, as determined by measurement of the OD600nm using a Synergy H1 microplate reader (BioTek). Susceptibility testing was performed in MHB II with a final volume of 100 μL. PAI3N (Bachem Americas) was solubilized in MHB II. […] Solvent controls were included in each plate.
(§3) The Fractional Inhibitory Concentration Index (FICI) was used to assess the synergy of PAI3N in combination with different antibiotics. The FICI represents the ΣFIC of each drug. The FICI for each drug was calculated using the following formula: FICI=FICA+FICB=(CA/MICA)+(CB/MICB). Where MICA and MICB are the MICs of drugs A (PAI3N/NMP) and B (antibiotic) alone, and CA and CB are the MICs of the drugs in combination. The effects of PAβN or NMP in combination with antibiotics were classified as: synergistic (FICI<0.5), additive (FICI>0.5-1.0), indifferent (FICI>1.0-2.0), and antagonistic (FICI>2.0). Fold increases in resistance provided by efflux pumps were calculated by dividing the MIC values of strains expressing efflux pumps by the MIC value of EKO-35.

[3] = system: EKO-35-Pore acrBD408A (functionally inactive AcrB variant); experiment: Checkerboard synergy (FICI), porinated strain
Protocol: as §2, §3

EKO-35-Pore = experiment: Checkerboard synergy (FICI), porinated strain
Protocol: as §2, §3

wild-type K-12-Pore = experiment: Checkerboard synergy (FICI), porinated strain
Protocol: as §2, §3

[4] = EKO-35 acrB Pore, NMP + antibiotic
[5] = strain EKO-35 acrB Pore, NMP + antibiotic
[6] = strain EKO-35 acrBD408A Pore, NMP + antibiotic
[7] = strain EKO-35 Pore, NMP + antibiotic

Structure (SMILES): CC(=O)NC[C@H]1CN(c2ccc(N3CCOCC3)c(F)c2)C(=O)O1 [linezolid]
- Fold change of MICs (EKO-35 araC::acrB; EKO-35 araC::acrB compared to EKO-35): 32 fold
- MIC (EKO-35 araC::acrB; Escherichia coli, Table 13A, non-porinated, technical duplicate, read-out: Minimum Inhibitory Concentration, EKO-35 araC::acrB): 250 µg/mL
- Fold change of MICs (EKO-35 araC::acrD; EKO-35 araC::acrD compared to EKO-35): 1 fold
- MIC (EKO-35 araC::acrD; Escherichia coli, Table 13A, non-porinated, technical duplicate, read-out: Minimum Inhibitory Concentration, EKO-35 araC::acrD): 7.81 µg/mL
- Fold change of MICs (EKO-35 araC::emrAB; EKO-35 araC::emrAB compared to EKO-35): 1 fold
- MIC (EKO-35 araC::emrAB; Escherichia coli, Table 13B, non-porinated, technical duplicate, read-out: Minimum Inhibitory Concentration, EKO-35 araC::emrAB): 3.91 µg/mL
- Fold change of MICs (EKO-35 araC::emrKY; EKO-35 araC::emrKY compared to EKO-35): 1 fold
- MIC (EKO-35 araC::emrKY; Escherichia coli, Table 13B, non-porinated, technical duplicate, read-out: Minimum Inhibitory Concentration, EKO-35 araC::emrKY): 3.91 µg/mL
- Fold change of MICs (EKO-35 araC::macAB; EKO-35 araC::macAB compared to EKO-35): 1 fold
- MIC (EKO-35 araC::macAB; Escherichia coli, Table 13B, non-porinated, technical duplicate, read-out: Minimum Inhibitory Concentration, EKO-35 araC::macAB): 3.91 µg/mL
- Fold change of MICs (EKO-35 araC::mdtEF; EKO-35 araC::mdtEF compared to EKO-35): 1 fold
- MIC (EKO-35 araC::mdtEF; Escherichia coli, Table 13A, non-porinated, technical duplicate, read-out: Minimum Inhibitory Concentration, EKO-35 araC::mdtEF): 3.91 µg/mL
- Fold change of MICs ([1]; EKO-35 araC::mexCD compared to EKO-35): 2 fold
- MIC ([1]; Table 13B, non-porinated, technical duplicate, read-out: Minimum Inhibitory Concentration, EKO-35 araC::mexCD): 15.6 µg/mL
- Effect [2, 4]: Synergistic
- FICI [2, 4]: 0.250
- Effect ([2]; EKO-35 acrB Pore, PAβN + antibiotic): Synergistic
- MICb Alone ([2]; EKO-35 acrB Pore, antibiotic alone (PAβN checkerboard)): 128 µg/mL
- MICb Combined ([2]; EKO-35 acrB Pore, antibiotic in combination with PAβN): 8 µg/mL
- potentiation of the labelled compound by NMP ([2]; porinated strain producing AcrB): enhancing the activity
- Effect [2, 5]: Synergistic (Synergy (FICI ≤0.5))
- FICI [2, 5]: 0.250
- MICb Alone ([2]; strain EKO-35 acrB Pore, antibiotic alone): 128 µg/mL
- MICb Combined ([2]; strain EKO-35 acrB Pore, antibiotic in combination with NMP): 16 µg/mL
- FICI ([3]; EKO-35 acrBD408A Pore, NMP + antibiotic): 2.000
- FICI ([3]; EKO-35 acrBD408A Pore, PAβN + antibiotic): 1.000
- MICb Alone ([3]; EKO-35 acrBD408A Pore, antibiotic alone (PAβN checkerboard)): 8 µg/mL
- MICb Combined ([3]; EKO-35 acrBD408A Pore, antibiotic in combination with PAβN): 4 µg/mL
- Effect [3, 6]: — (indifferent (FICI >1.0))
- FICI [3, 6]: 2.000
- MICb Alone ([3]; strain EKO-35 acrBD408A Pore, antibiotic alone): 8 µg/mL
- MICb Combined ([3]; strain EKO-35 acrBD408A Pore, antibiotic in combination with NMP): 8 µg/mL
- FICI (EKO-35-Pore; EKO-35 Pore, NMP + antibiotic): 2.000
- FICI (EKO-35-Pore; EKO-35 Pore, PAβN + antibiotic): 1.000
- MICb Alone (EKO-35-Pore; EKO-35 Pore, antibiotic alone (PAβN checkerboard)): 8 µg/mL
- MICb Combined (EKO-35-Pore; EKO-35 Pore, antibiotic in combination with PAβN): 4 µg/mL
- Effect (EKO-35-Pore; [7]): — (indifferent (FICI >1.0))
- FICI (EKO-35-Pore; [7]): 2.000
- MICb Alone (EKO-35-Pore; strain EKO-35 Pore, antibiotic alone): 8 µg/mL
- MICb Combined (EKO-35-Pore; strain EKO-35 Pore, antibiotic in combination with NMP): 8 µg/mL
- Effect (wild-type K-12-Pore; K-12 Pore, NMP + antibiotic): Synergistic
- Effect (wild-type K-12-Pore; K-12 Pore, PAβN + antibiotic): Synergistic
- FICI (wild-type K-12-Pore; K-12 Pore, PAβN + antibiotic): 0.250
- MICb Alone (wild-type K-12-Pore; K-12 Pore, antibiotic alone (PAβN checkerboard)): 128 µg/mL
- MICb Combined (wild-type K-12-Pore; K-12 Pore, antibiotic in combination with PAβN): 16 µg/mL
- Effect (wild-type K-12-Pore; strain K-12 Pore, NMP + antibiotic): Synergistic (Synergy (FICI ≤0.5))
- MICb Alone (wild-type K-12-Pore; strain K-12 Pore, antibiotic alone): 128 µg/mL
- MICb Combined (wild-type K-12-Pore; strain K-12 Pore, antibiotic in combination with NMP): 32 µg/mL
